Test results reported in patent EP2345639A1, “Cyclic hydroxylamine derivatives, their preparation and use as antioxidants” (ABIOGEN PHARMA S.p.A., priority 2009, dated 2011).
Like-named read-outs stand apart in the source and are kept apart here.

Tests used:
[1] = Brain-to-plasma concentration ratio in mice; assay type: in vivo, Female CD-1 mice; settings: female, CD-1, mouse, ip, 25 mg/kg intraperitoneal, area under the curve of brain and plasma concentrations 0 to 60 minutes, read-out: B/P ratio
Experimental: The ability of the compounds of the invention to penetrate the brain was investigated by measuring their brain/plasma (B/P) ratio in mice following intraperitoneal administration.
Female CD-1 mice were used (n=3 for each time period) and received the compounds of the invention by intraperitoneal administration, in 25 mg/kg doses in a 0.5% NaHCO3 buffer (pH 8.3). At predefined intervals following said administration, i.e. 5, 15, 30 and 60 minutes, the mice were killed and both plasma and total brain tissue were collected.
Specifically, after anaesthesia with ether, the animals were bled by blood withdrawal from the abdominal aorta then immediately decapitated. The blood samples were collected into plasma separator tubes containing Li-Heparin as anticoagulant and centrifuged. The resulting plasma was then stored at -20 °C. The brain was rapidly removed from the cranium and weighed, subsequently frozen and stored at -20 °C before treatment by homogenization and HPLC analysis.
The plasma was thawed and mixed with an equal volume of the extraction solution.
1 ml of solution was then extracted by adding 20 µl of 70% HClO4, then centrifuged at 15,500g for 5 minutes and injected into the HPLC.
Each brain was thawed and homogenized with the extraction solution to provide a final composition of 4 ml/1g of tissue by means of an Ultra-Turrax blender and sonicated for 5 minutes. After centrifugation of the homogenate at 15,500g for 5 minutes, the resulting solution was treated with HClO4, as indicated for the plasma. Specific chromatographic conditions had been developed for each analyte, the calibration curve being constructed for plasma and brain homogenate.

[2] = system: doxorubicin-induced cerebral oxidative stress in mice; assay: In vivo assay of cerebral oxidative stress induced in mice by doxorubicin (model and oxidized animals); settings: Mus musculus; for inhibition in vivo at 50 mg/kg: overall, compared with its own vehicle, read-out: inhibition of the doxorubicin effect; for change in vivo at 50 mg/kg: oxidized mice
Experimental: The assay was carried out on compounds (1)-(5) and (7)-(11) and on edaravone (E) as comparative compound.
(§1) 10 mice were used for each treatment group. For each compound 50 mg/kg were administered intraperitoneally (IP) for three consecutive days (day 0, 1 and 2); half the animals (5) also received IP 16.7 mg/kg of doxorubicin immediately after the first treatment (day 0). On the day after the last administration (day 3) the animals were killed by neck dislocation and the brains were removed, weighed and frozen in liquid nitrogen.
(§2) For the analyses of oxidative stress, 100 mg/ml of brain homogenate was prepared in HEB^(*) buffer (pH 7.4 EDTA/HEPES^(**)) containing a mixture of enzyme inhibitors (Leupeptin, Pepstatin, Aprotinin, BHA).
(§3) The evaluation parameters were: • BrW/BWi: ratio between final brain weight and initial body weight (day 0); • Prot. Hmg: total proteins in the homogenate (BCA method, i.e. bicinchoninic acid); • Prot. Ox: oxidized proteins in the Hmg by means of a colorimetric method using dinitrophenylhydrazone (DNPH); • GSH: reduced glutathione in the supernatant (sn) of the Hmg, obtained after precipitation with metaphosphoric acid (MPA), by means of a colorimetric method using dithiodinitrobenzene (DTNB); • CAT: catalase in the Hmg by a colorimetric method using potassium dichromate; • SOD: superoxide dismutase by a colorimetric method using SOD Reagent (xanthine, EDTA, nitroblue tetrazole, Na2CO3, BSA, i.e. bovine serum albumin); • GST: glutathione S-transferase in the supernatant by a colorimetric method using chlorodinitrobenzene (CDNB) and GSH; and • GPx: glutathione peroxidase in the supernatant after addition of GSH and t-BuOOH, heating and precipitation with MPA; followed by GSH method with DTNB. The assay was performed on the compounds (1)-(5) and (7)-(11) and on edaravone (E), as comparative compound.
The mean effect (n=5 experiments) of doxorubicin (D), i.e. "oxidized" animal, relative to the vehicle (V), the vehicle representing the healthy animal.
All the parameters, with the exclusion of Brain/BWi and Prot. Hmg, were normalized for total Hmg proteins. The D value standard deviations and the % incidence relative to V are given in italics.
The effect of the tested compounds on the "oxidized" animals was given as % inhibition relative to the percentage change due to doxorubicin alone. The effect of the compounds on the oxidized animals can be expressed both as a function of the values of the vehicle (healthy, vehicle only) and as a function of the value of its own (healthy, compound only): • Vehicle: percentage [(Compound+D)/V]x100/[(V+D)/V]x100 • Its own: percentage [(Compound+D)/Compound]x100/[(V+D)/V]x100
Again in this case, the mean % effect relative to doxorubicin alone could be given for all the parameters simultaneously, as an approximate index of effectiveness on the cerebral oxidative state of the animal.

[3] = system: healthy animals; assay: Effect of the compounds on healthy animals (same in vivo assay, cerebral oxidative parameters); set-up: species or system mice; settings: for Average % variation with respect to the vehicle: 50 mg/kg IP for three consecutive days, mean over all parameters, D = doxorubicin alone
Experimental: as §1, §2, §3
The mean % effect, on all the parameters simultaneously, of the triple treatment in healthy animal, as mean percentage change relative to the vehicle. This value is useful as an approximate safety index of the oxidative state of the brain, i.e. the capacity of the compounds of the invention not to alter cerebral homeostasis in healthy animals.

[4] = TEAC method (Trolox Equivalent Antioxidant Capacity Assay); assay type: biochemical; settings: ratio of gradient to gradient of Trolox; 650 nm, 37 °C, about 90 minutes
Text: This assay is used to measure the total antioxidant activity of pure substances, biological fluids and plant compounds and is based on the reaction of antioxidants with the cation radical ABTS·^+ (2,2'-azinobis(3-ethylbenzothiazolin-6-sulphonate)). This cation radical is metastable and has to be generated just before the experiment by reacting ABTS with hydrogen peroxide in the presence of HRP. This radical can be reduced, with consequent loss of absorbance, by an antioxidant whose scavenging capacity can be measured spectrophotometrically at 650 nm. The test is carried out at 37 °C and the results are obtained from a comparison with Trolox (a synthetic antioxidant and hydrophilic analogue of vitamin E).
The ABTS solution S1 was prepared as follows: • 20 mg of ABTS were added to 50 mM of citric acid buffer (40 ml) at pH=4.5 and to the resulting solution there was added an aqueous solution of HRP (4.4 mg, 400 µl) and an aqueous solution of H2O2 (10 µl of a 30% solution diluted with 16.3 ml of water).
For each of the compounds (1)-(11), as synthesized above, there was prepared a 600 µM solution in water, methanol or DMSO according to its solubility, as well as a Trolox solution as reference.
Each solution was diluted to produce 6 solutions each at a concentration between 25 µM and 300 µM. From each of the diluted and divided solutions, there were withdrawn 20 µl to which 200 µl of solution S1 were then added.
The decrease in absorbance of each solution thus obtained was monitored at 650 nm until a stable value was reached (about 90 minutes).
For each set of 6 solutions and for the reference trolox solution, the absorption was given in graph form as a function of the amount of compound (nmol) in the solution. The gradient of the straight line obtained by linear interpolation was determined according to the least squares method. The TEAC value of each compound of the invention is given in the table below and is expressed as the ratio between the gradient of the resulting straight line and the gradient of the reference (trolox) straight line.

[5] = ip, % inhibition relative to change due to doxorubicin alone, vs its own, read-out: Brain/BWi its own
[6] = ip, % inhibition relative to change due to doxorubicin alone, vs its own, read-out: CAT/pr its own
[7] = ip, % inhibition relative to change due to doxorubicin alone, vs its own, read-out: GPX/pr its own
[8] = ip, % inhibition relative to change due to doxorubicin alone, vs its own, read-out: GSH/pr its own
[9] = ip, % inhibition relative to change due to doxorubicin alone, vs its own, read-out: GST/pr its own
[10] = ip, % inhibition relative to change due to doxorubicin alone, vs its own, read-out: Prot. Hmg its own
[11] = ip, % inhibition relative to change due to doxorubicin alone, vs its own, read-out: Prot. Ox/pr its own
[12] = ip, % inhibition relative to change due to doxorubicin alone, vs its own, read-out: SOD/pr its own
[13] = ip, % inhibition relative to change due to doxorubicin alone, vs vehicle, read-out: Brain/BWi vehicle
[14] = ip, % inhibition relative to change due to doxorubicin alone, vs vehicle, read-out: CAT/pr vehicle
[15] = ip, % inhibition relative to change due to doxorubicin alone, vs vehicle, read-out: GPX/pr vehicle
[16] = ip, % inhibition relative to change due to doxorubicin alone, vs vehicle, read-out: GSH/pr vehicle
[17] = ip, % inhibition relative to change due to doxorubicin alone, vs vehicle, read-out: GST/pr vehicle
[18] = ip, % inhibition relative to change due to doxorubicin alone, vs vehicle, read-out: Prot. Hmg vehicle
[19] = ip, % inhibition relative to change due to doxorubicin alone, vs vehicle, read-out: Prot. Ox/pr vehicle
[20] = ip, % inhibition relative to change due to doxorubicin alone, vs vehicle, read-out: SOD/pr vehicle
[21] = 50 mg/kg IP x3 days + doxorubicin, computed as a function of its own (healthy, compound only), read-out: mean % effect relative to doxorubicin alone, all parameters (Its own)
[22] = healthy mice, 50 mg/kg IP x3 days, percentage change relative to the vehicle

O=C1CC(c2ccccc2)CC(=O)C1C1COCCN1O (stereo not drawn) [(5), 2-(4-hydroxymorpholin-3-yl)-5-phenylcyclohexane-1,3-dione]
Kp [1]: > 0.1 | inhibition in vivo at 50 mg/kg ([2]; ip): 45 to 50% | change in vivo at 50 mg/kg [2, 5]: -128% | change in vivo at 50 mg/kg [2, 6]: -24.2% | change in vivo at 50 mg/kg [2, 7]: -14.1% | change in vivo at 50 mg/kg [2, 8]: -40.8% | change in vivo at 50 mg/kg [2, 9]: -27.5% | change in vivo at 50 mg/kg [2, 10]: -42.2% | change in vivo at 50 mg/kg [2, 11]: -43.6% | change in vivo at 50 mg/kg [2, 12]: 3.5% | change in vivo at 50 mg/kg [2, 13]: -49.3% | change in vivo at 50 mg/kg [2, 14]: 7.6% | change in vivo at 50 mg/kg [2, 15]: -7.1% | change in vivo at 50 mg/kg [2, 16]: -21.6% | change in vivo at 50 mg/kg [2, 17]: -8.8% | change in vivo at 50 mg/kg [2, 18]: -12% | change in vivo at 50 mg/kg [2, 19]: -15.7% | change in vivo at 50 mg/kg [2, 20]: -4.2% | change in vivo at 50 mg/kg [2, 21]: -47.5% | Average % variation with respect to the vehicle ([3]; healthy mice, 50 mg/kg): did not significantly alter the parameters | Average % variation with respect to the vehicle ([3]; healthy mice, listed as V+(5), 50 mg/kg): -3.2% | Prot. Hmg [3, 22]: 5.0% | Brain/BWi ([3]; mouse, in vivo, ip, 50 mg/kg): 0.1% | CAT/pr ([3]; mouse, in vivo, ip, 50 mg/kg): -8.1% | GPX/pr ([3]; mouse, in vivo, ip, 50 mg/kg): -4.1% | GSH/pr ([3]; mouse, in vivo, ip, 50 mg/kg): -6.7% | GST/pr ([3]; mouse, in vivo, ip, 50 mg/kg): -5.8% | Prot. Ox/pr ([3]; mouse, in vivo, ip, 50 mg/kg): 1.8% | SOD/pr ([3]; mouse, in vivo, ip, 50 mg/kg): -3.7% | TEAC [4]: 1.2

O=C1CCC(=O)C1C1COCCN1O (stereo not drawn) [(7), 2-(4-hydroxymorpholin-3-yl)-cyclopentane-1,3-dione]
Kp [1]: > 0.1 | inhibition in vivo at 50 mg/kg ([2]; ip): ~85% | change in vivo at 50 mg/kg [2, 5]: -85.5% | change in vivo at 50 mg/kg [2, 6]: -45.5% | change in vivo at 50 mg/kg [2, 7]: -30.3% | change in vivo at 50 mg/kg [2, 8]: -138% | change in vivo at 50 mg/kg [2, 9]: -29.7% | change in vivo at 50 mg/kg [2, 10]: -48.2% | change in vivo at 50 mg/kg [2, 11]: 20.3% | change in vivo at 50 mg/kg [2, 12]: -23.8% | change in vivo at 50 mg/kg [2, 13]: 21.7% | change in vivo at 50 mg/kg [2, 14]: 2.3% | change in vivo at 50 mg/kg [2, 15]: -23.2% | change in vivo at 50 mg/kg [2, 16]: -60.8% | change in vivo at 50 mg/kg [2, 17]: -22% | change in vivo at 50 mg/kg [2, 18]: -14.5% | change in vivo at 50 mg/kg [2, 19]: -22.1% | change in vivo at 50 mg/kg [2, 20]: -25.9% | change in vivo at 50 mg/kg [2, 21]: -85.5% | Average % variation with respect to the vehicle ([3]; healthy mice, 50 mg/kg): did not significantly alter the parameters | Average % variation with respect to the vehicle ([3]; healthy mice, listed as V+(7), 50 mg/kg): -3.5% | Brain/BWi [3, 22]: -9.8% | CAT/pr [3, 22]: -11.6% | GPX/pr [3, 22]: -0.8% | GSH/pr [3, 22]: -9.5% | GST/pr [3, 22]: -0.5% | Prot. Hmg [3, 22]: 3.6% | Prot. Ox/pr [3, 22]: -7.2% | SOD/pr [3, 22]: 0.5% | TEAC [4]: 1.5
